According to patent US4544660A, “Pharmaceutically active tropanes” (Beecham Group p.l.c., priority 1978, dated 1985):
Like-named read-outs stand apart in the source and are kept apart here.

Key:
Dopamine Receptor [1] = experiment: Inhibition of apomorphine induced climbing in the mouse; format: in vivo; conditions: p.o., apomorphine 1 mg/kg s.c.
Protocol: (§1) I. Dopamine Receptor Blocking Activity in the Central Nervous System
(b) Inhibition of apomorphine induced climbing in the mouse
The test is based on that described by Protais, P., Constantin, J. and Schwartz J.C. (1976), Psychopharmacology, 50, 1-6.
Apomorphine 1 mg/kg s.c. induces mice to climb the wall of a wire cage (inverted food hopper--11×7.5×18 cm high). Mice acclimatised in their home cages in groups of 5 are placed under the hoppers immediately after the injection of apomorphine 1 mg/kg s.c. At 10,20 and 30 minutes after injection climbing behaviour is scored. The mice are observed for 30 seconds and scored according to the position they spend the majority of time in, score 0--four paws on floor of cage; score 1--fore paws only on walls; score 2--all paws on wall of cage. The scores at all 3 times and for each mouse are summed and mice drug treated orally compared to mice receiving apomorphine only. A saline only treated group is also included and any score, generally <5% of maximum taken into account.

dopamine receptor [2] = molecular target: T1, dopamine receptor (Rattus norvegicus, UniProt P61169); experiment: In vitro displacement of radiolabelled spiroperidol from dopamine receptor membranes; format: binding, rat (Male Hooded Lister); conditions: for inhibition at 10 µM: 0.25 h, 10^-5 M compound, read-out: I(c) Spiroperidol Displacement % at 10^-5 M
T1 construct: the caudate nucleus is quickly dissected out; from tissue; host or cells: caudate nucleus of male Hooded Lister rats, homogenate
Protocol: (c) In vitro displacement of radiolabelled spiroperidol from dopamine receptor membranes
Therefore a compound which displaces this ligand from dopamine receptor membranes may have neuroleptic properties.
Male Hooded Lister rats (200-300 g) are decapitated and the caudate nucleus is quickly dissected out. This is homogenised in ice cold Tris buffer (pH 7.7 at 25° C.) at a concentration of 10 mg/ml wet weight of tissue. The test compound (at 10^-5 M) or spiroperidol (standard curve from 10^-5 to 10^-9 M) is added to the assay tubes followed by 0.5 nM [^3 H]-spiroperidol. This is mixed with 500 μl of the membrane preparation and the assay tubes are incubated for 15 minutes at 37° C. After this period 4 ml ice cold Tris buffer is added to each tube and the solutions are filtered through per-soaked glass fibre filters. The filter is washed twice with 4 ml of the buffer and then transferred to a scintillation vial for counting. Single concentration results are given as a percentage of [^3 H]-spiroperidol displaced.

vomiting response = experiment: Anti-emetic activity in the dog (apomorphine induced vomiting); format: in vivo; design: key to II Anti-Emetic Activity Dose, slight activity (footnote *): *: slight at 5 × 10^-4; conditions: s.c.; for ED100: Canis lupus familiaris, 30 min before apomorphine HCl 0.1 mg/kg s.c., complete inhibition, read-out: II Anti-Emetic Activity Dose, Complete Inhibition
Protocol: II. Anti-emetic activity in the dog
Compounds were administered subcutaneously 30 minutes prior to administration of a standard dose of apomorphine HCl (0.1 mg/kg subcutaneously) and the vomiting response compared to that obtained when the same animals were dosed with apomorphine HCl and vehicle only.

Dopamine Receptor [3] = experiment: Inhibition of apomorphine induced stereotype behaviour in the rat; format: in vivo; design: key to I(a) Dose Inhibiting Stereotype Behaviour (slight inhibition, footnote *): *: slight at 0.05; key to I(a) Dose Inhibiting Stereotype Behaviour (slight inhibition, footnote +): +: slight at 1; conditions: s.c.; for I(a) Dose Inhibiting Stereotype Behaviour (dose for complete inhibition): apomorphine induced, IA(x) = inactive at dose in brackets
Source text: as §1
(a) Inhibition of apomorphine induced stereotype behaviour in the rat
(method of Ernst (1967), Psychopharmacologia (Berl.) 10 316-323).

intragastric pressure = experiment: Increase in intragastric pressure in the rat; format: in vivo; design: III(a) Increase in Intragastric Pressure Dose (minimum dose for activity): unit not given here; conditions: s.c., 40 minute period after administration
Protocol: (a) Increase in intragastric pressure in the rat
Intragastric pressure changes were recorded from previously starved conscious but restrained rats using a saline filled catheter inserted into the lumen of the stomach via a permanent gastric fistula. The catheter was connected to a physiological pressure transducer and pressure changes recorded on a hot wire pen recorder. In each animal a pre-dose period of 40 minutes was allowed to obtain a measure of spontaneous activity. An index of activity was obtained by measuring the average height of pressure waves during 10 minute periods. Values for 4 such periods were obtained during assessment of spontaneous activity and for the 40 minute period after the subcutaneous administration of the compounds. Students `t` test was applied to the difference in average values obtained for spontaneous and post-compound activity.

gastric emptying = experiment: Increase in gastric emptying: reversal of apomorphine induced delay in gastric emptying in the rat; format: in vivo; conditions: for III(b) Increase in Gastric Emptying: 10 mg/kg s.c., apomorphine HCl 5 mg/kg s.c. induced delay
Protocol: (b) Increase in gastric emptying: reversal of apomorphine induced delay in gastric emptying in the rat
Rats equipped with chromic gastric fistulae were used and it was through this that 5 ml of a test meal (5 ml phosphate buffer at pH 9) was administered and recovered. The % recovery of the standard meal after remaining in the stomach for 10 minutes was taken as an index of gastric emptying. Delay in gastric emptying was induced by the administration of apomorphine HCl (5 mg/kg subcutaneously) which was given 15 minutes prior to the subcutaneous administration of the compound. The % recoveries of the test meal were determined at 15-25 and 45-55 minutes post-dosing with the compound and compared with vehicle only dosed animals set up simultaneously. Six animals were used for each group.

[4] = Anti-arrhythmic activity (single compound test)
dopamine receptor [5] = molecular target: T1, dopamine receptor; conditions: literature; cited from earlier work
[6] = Anti-obesity activity (single compound test); format: in vivo
[7] = 0.5 nM [3H]-spiroperidol, rat caudate nucleus membranes
[8] = 0.5 nM [3H]-spiroperidol, rat caudate nucleus membranes, read-out: I(c) Spiroperidol Displacement ED50 (concentration for 50% displacement)

T1 sequence (P61169 whole entry): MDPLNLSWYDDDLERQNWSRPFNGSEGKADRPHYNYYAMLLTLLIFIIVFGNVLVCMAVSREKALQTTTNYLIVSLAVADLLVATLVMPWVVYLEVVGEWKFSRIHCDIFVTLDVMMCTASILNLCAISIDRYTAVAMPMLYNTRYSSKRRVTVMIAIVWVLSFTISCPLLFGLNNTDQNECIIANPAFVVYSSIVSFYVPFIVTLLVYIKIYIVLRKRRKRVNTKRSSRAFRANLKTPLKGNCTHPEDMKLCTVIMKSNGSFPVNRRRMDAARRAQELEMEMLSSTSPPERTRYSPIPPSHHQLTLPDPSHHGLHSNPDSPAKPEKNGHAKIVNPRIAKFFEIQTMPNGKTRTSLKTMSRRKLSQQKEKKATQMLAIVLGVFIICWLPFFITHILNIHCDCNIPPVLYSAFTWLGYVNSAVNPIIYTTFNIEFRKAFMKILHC

For `COc1cc(N)c(Cl)cc1C(=O)N[C@@H]1C[C@H]2CC[C@@H](C1)N2Cc1ccc(C)cc1` [Compound 13, 4amino-5chloro-2-methoxy-N-(3β-[8'[4"methylbenzyl]-8'-azabicyclo[3.2.1]octyl])-benzamide], the “I(b) Anti-Climbing Activity Dose, ED50” value (Dopamine Receptor [1]) was 0.12 mg/kg, the inhibition at 10 µM (dopamine receptor [2]; [7]) was 54% and the ED100 (vomiting response) was 0.1 mg/kg.
With `COc1cc(N)c(Cl)cc1C(=O)N[C@@H]1C[C@H]2CC[C@@H](C1)N2CC1CCCCC1` [Compound 30, 4-amino-5-chloro-2-methoxy-N-(3'β-[8'-cyclohexylmethyl-8'-azabicyclo-[3.2.1]-octyl])-benzamide] the “I(a) Dose Inhibiting Stereotype Behaviour (slight inhibition, footnote *)” value (Dopamine Receptor [3]; slight at 0.05) was “*”, the “I(b) Anti-Climbing Activity Dose, Complete Inhibition” value (Dopamine Receptor [1]) was 5 mg/kg and the IC50 (dopamine receptor [2]) was 20 nM. The “II Anti-Emetic Activity Dose, slight activity (footnote *)” value (vomiting response; slight at 5 × 10^-4) was “*”, the “III(a) Increase in Intragastric Pressure Dose (minimum dose for activity)” value (shortened to “III(a) Increase”) (intragastric pressure) was “IA(1)” and the “III(b) Increase in Gastric Emptying” value (gastric emptying) was 0.05%.
For `COc1cc(N)c(Cl)cc1C(=O)N[C@H]1C[C@H]2CC[C@@H](C1)N2C` [Compound 20, 4-amino-5-chloro-2-methoxy-N-(3'α-[8'-methyl-8'-azabicyclo[3.2.1]-octyl])-benzamide], the anti-arrhythmic activity [4] was “anti-arrhythmic activity”.
With `CCCCN1[C@@H]2CC[C@H]1C[C@@H](NC(=O)c1cc(Cl)c(N)cc1OC)C2` [Compound 27, 4-amino-5-chloro-2-methoxy-N-(3'α-[8'-n-butyl-8'-azabicyclo[3.2.1]-octyl])benzamide] the “I(a) Dose Inhibiting Stereotype Behaviour (dose for complete inhibition)” value (Dopamine Receptor [3]) was “IA(10)”, the “I(b) Anti-Climbing Activity Dose, Complete Inhibition” value (Dopamine Receptor [1]) was “IA (inactive at 10 mg/Kg p.o.)” and the inhibition at 10 µM (dopamine receptor [2]; [7]) was 66%. The ED100 (vomiting response) was 1 mg/kg, the “III(a) Increase” value (intragastric pressure) was “IA(10)” and the “III(b) Increase in Gastric Emptying” value (gastric emptying) was “IA(10)”.
In the case of `O=C(CCCN1CCC2(CC1)C(=O)NCN2c1ccccc1)c1ccc(F)cc1` [[3H]-spiroperidol], the “binding to dopamine receptors in the brain” value (dopamine receptor [5]) is listed as “high affinity”.
With `COc1cc(N)c(Cl)cc1C(=O)N[C@@H]1C[C@H]2CC[C@@H](C1)N2CCc1ccccc1` [Compound 18, 4amino-5-chloro-2-methoxy-N-(3β-[8'-β-phenethyl]-['-azabicyclo[3.2.1]octyl])-benzamide] the “I(a) Dose Inhibiting Stereotype Behaviour (dose for complete inhibition)” value (Dopamine Receptor [3]) was “IA(50)”, the “I(b) Anti-Climbing Activity Dose, Complete Inhibition” value (Dopamine Receptor [1]) was “IA (inactive at 10 mg/Kg p.o.)” and the IC50 (dopamine receptor [2]; [8]) was 600 nM. The ED100 (vomiting response) was 0.25 mg/kg and the “III(a) Increase” value (intragastric pressure) was “IA(5)”.
For `COc1cc(N)c(Cl)cc1C(=O)N[C@@H]1C[C@H]2CC[C@@H](C1)N2Cc1ccccc1` [Compound 5, 4-amino-5-chloro-2-methoxy-N-(3'β-[8'-benzyl]8-azabicyclo[3.2.1]octyl)benzamide], the “I(a) Dose Inhibiting Stereotype Behaviour (dose for complete inhibition)” value (Dopamine Receptor [3]) was 0.05 mg/kg, the “I(b) Anti-Climbing Activity Dose, ED50” value (Dopamine Receptor [1]) was 0.03 mg/kg and the ED100 (vomiting response) was 0.001 mg/kg. The minimal effective dose (gastric emptying; sc, read-out: dose that significantly increases gastric emptying) was 0.05 mg/kg and the anti-obesity activity [6] was “anti-obesity activity”.
In the case of `COc1cc(N)c(Cl)cc1C(=O)N[C@@H]1C[C@H]2CCC[C@@H](C1)N2Cc1ccccc1` [Compound 12, 4-amino-5-chloro-2-methoxy-N-(3'β-[9'-benzyl-9'-azabicyclo-[3.3.1]-nonyl])-benzamide], the “I(a) Dose Inhibiting Stereotype Behaviour (dose for complete inhibition)” value (Dopamine Receptor [3]) is reported as 0.5 mg/kg, the “I(b) Anti-Climbing Activity Dose, Complete Inhibition” value (Dopamine Receptor [1]) is reported as 2 mg/kg and the inhibition at 10 µM (dopamine receptor [2]; [7]) is reported as 53%. For the same compound, the ED100 (vomiting response) was 0.1 mg/kg and the “III(a) Increase” value (intragastric pressure) was “IA(1)”.
For `COc1cc(N)c(Cl)cc1C(=O)N[C@@H]1C[C@H]2CC[C@@H](C1)N2C` [Compound 19, 4-Amino-5-chloro-2-methoxy-N-(3'β-[8'-methy-8'-azabicyclo[3.2.1]-octyl])-benzamide], the “I(a) Dose Inhibiting Stereotype Behaviour (dose for complete inhibition)” value (Dopamine Receptor [3]) was “IA(25)”, the “I(b) Anti-Climbing Activity Dose, Complete Inhibition” value (Dopamine Receptor [1]) was “IA (inactive at 10 mg/Kg p.o.)” and the inhibition at 10 µM (dopamine receptor [2]; [7]) was 64%. The ED100 (vomiting response) was 0.6 mg/kg, the minimal effective dose (intragastric pressure; sc, 40 min, read-out: III(a) Increase in Intragastric Pressure Dose (minimum dose for activity)) was 1 to 10 mg/kg and the “III(b) Increase in Gastric Emptying” value (gastric emptying) was 25%.
In the case of `CCCCN1[C@@H]2CC[C@H]1C[C@H](NC(=O)c1cc(Cl)c(N)cc1OC)C2` [Compound 26, 4-amino-5-chloro-2-methoxy-N-(3'β-[8'-n-butyl-8'-azabicyclo[3.2.1]-octyl])benzamide], the “I(a) Dose Inhibiting Stereotype Behaviour (slight inhibition, footnote +)” value (Dopamine Receptor [3]; slight at 1) is reported as “+”, the “I(b) Anti-Climbing Activity Dose, ED50” value (Dopamine Receptor [1]) is reported as 2.9 mg/kg and the IC50 (dopamine receptor [2]; [8]) is reported as 400 nM. For the same compound, the ED100 (vomiting response) was 0.4 mg/kg and the “III(b) Increase in Gastric Emptying” value (gastric emptying) was 1%.
